Measured values from ChEMBL document CHEMBL3414567, “Novel hybrid DHPM-fatty acids: synthesis and activity against glioma cell growth in vitro” (Eur J Med Chem, 2015).
Activity calls are given as the source filed them. The rule behind the calls is not given here.

Legend:
[1] = system: C6; assay: Cytotoxicity against rat C6 cells assessed as reduction of cell viability at 50 uM after 24 hrs by MTT assay; type: functional, cell-based
[2] = Cytotoxicity against Wistar rat organotypic hippocampal slice cultures assessed as neural cell death at 200 uM after 24 hrs by propidium iodide staining-based fluorescence image analysis; parameters: species or system Hippocampus
[3] = Cytotoxicity against human U138MG cells assessed as reduction of cell viability at 50 uM after 24 hrs by MTT assay relative to control; type: functional, U138-MG
[4] = system: C6; assay: Cytotoxicity against rat C6 cells assessed as reduction of cell viability at 25 uM after 24 hrs by MTT assay; type: functional, cell-based
[5] = Cytotoxicity against human U138MG cells assessed as reduction of cell viability at 10 uM after 24 hrs by MTT assay relative to control; type: functional, U138-MG
[6] = system: C6; assay: Cytotoxicity against rat C6 cells assessed as reduction of cell viability after 24 hrs by MTT assay; type: functional, cell-based
[7] = system: U138-MG; assay: Cytotoxicity against human U138MG cells assessed as reduction of cell viability after 24 hrs by MTT assay; type: functional, cell-based
[8] = Cytotoxicity against human U138MG cells assessed as growth inhibition at 150 uM relative to control; type: functional; details: U138-MG, read-out: GI
[9] = system: C6; assay: Cytotoxicity against rat C6 cells assessed as growth inhibition at 150 uM relative to control; type: functional; details: read-out: GI

| Compound | Activity [1] | Activity [2] | Activity [3] [%] | further results |
| --- | --- | --- | --- | --- |
| CCCCCCCCCCCCCCCCCCOC(=O)C1=C(C)NC(=S)NC1c1cccc(O)c1 (stereo unspecified) | inactive |  |  |  |
| CCCCCCCC/C=C\CCCCCCCCOC(=O)C1=C(C)NC(=O)NC1c1cccc(O)c1 (stereo unspecified) | Active | Non-toxic | 70 | Activity [4]: Active |
| CCCCCCCCCCCCCCCCOC(=O)C1=C(C)NC(=O)NC1c1cccc(O)c1 (stereo unspecified) | Active | Non-toxic | 70 | Activity [5]: 50% |
| CCCCCCCCCCCCCCCCOC(=O)C1=C(C)NC(=S)NC1c1cccc(O)c1 (stereo unspecified) | Active | Non-toxic | 70 | Activity [4]: Active |
| CCCCCCCC/C=C\CCCCCCCCOC(=O)C1=C(C)NC(=S)NC1c1cccc(O)c1 (stereo unspecified) | Active | Non-toxic | 70 |  |
| CCCCCCCC/C=C\CCCCCCCCOC(=O)C1=C(C)NC(=O)NC1c1ccccc1 (stereo unspecified) |  | Non-toxic |  | Activity [6]: Dose-dependent effect; Activity [7]: Dose-dependent effect |
| CCOC(=O)C1=C(C)NC(=S)NC1c1cccc(O)c1 (stereo unspecified) [MONASTROL] |  |  |  | inhibition of growth at 150 µM [8]: 30%; inhibition of growth at 150 µM [9]: 30% |
